From patent US10925974B2, “Adipose tissue-targeting polypeptide-verbascoside-nanogold particle derivative, preparation method and application thereof” (Affiliated Stomatological Hospital of Nanjing Medical …, priority 2018, dated 2021) come the findings set out here.

Marks after values point to notes of the source that are not given here. Ends that are not written are not given here.

For assay [1], the system named is visceral fat and subcutaneous fat of mice. Nature of the assay: Storage of visceral fat and subcutaneous fat of mice provided with high fat feed. Type of assay: in vivo. As to the method: 1) Providing an intraperitoneal administration to the high-fat-fed obese mice for 12 weeks according to the experimental procedure of Embodiment 3;
2) Fasting the mice of each group for 12 hours, and then anesthetizing with 3% pentobarbital sodium having a concentration of 45 mg/kg via intraperitoneal injection, and accurately weighing the mice;
3) Disinfecting routinely and performing laparotomy, rapidly extracting and weighing the adipose tissue around the kidney, adipose tissue around the mesentery, adipose tissue around the epididymis, and abdominal subcutaneous adipose tissue to obtain wet weights thereof (the abdominal subcutaneous adipose tissue range: abdomen below the rib arch and above the groin, both sides are bounded by the midaxillary line);
4) Calculating according to the following formula: wet weight of the abdominal adipose; total weight of the fat pad (g)=adipose tissue around the kidney+adipose tissue around the epididymis; body fat content=the total weight of the fat pad (g)/the total body weight of mice (g);

A short description of assay [2]: Inhibition of weight gain of mice fed with high-fat feed. The assay is classed as in vivo. The source says: Experimental Animals: 3-4 weeks old male mice and feed provided by the Laboratory Animal Center of Nanjing Medical University, license No.: SCXK (Su) 2011-0003. The animals were randomly caged, with unlimited drink and feed. Experimental drugs: polypeptide-verbascoside-nanogold particle derivative (adipose tissue-targeting), polypeptide-verbascoside derivative, polypeptide-nanogold derivative, and verbascoside-nanogold derivative as experimental groups, and physiological saline for negative control. 2) Raising 60 male mice of 6 weeks old in the clean environment of Experimental Animal Center of Nanjing Medical University, at a temperature of (21±2) ° C., a humidity of (35±2) %, an intermittent illumination for 12 hours, with unlimited drink and feed; wherein the drinking water is distilled water prepared by the experimental animal center; 3) After 2-3 days of adaptive feeding, randomly selecting 10 mice as a blank control group provided with regular feed, while providing the remaining 50 rice with high fat feed (cholesterol 1 wt. %, lard 20 wt. %, bile salt 0.2 wt. %, and regular feed 78.8 wt. %); measuring the body weight of the mice in the two groups every 2 weeks; analyzing the obtained body weight data with statistical methods, and the results are shown in FIG. 3, wherein *P<0.05, **P<0.01, and ***P<0.001 indicate body weight data of the experimental group compared with those of the blank control group fed with regular feed; 4) Randomly dividing the obese mice fed with high-fat feed into several groups, with each group of 10 mice; injecting (exemplified by intraperitoneal injection) physiological saline (0.03 mL of physiological saline per 30 g body weight), polypeptide-verbascoside derivative (15 mg of derivative per kg body weight, dissolved in DMSO), polypeptide-nanogold derivative (15 mg of derivative per kg body weight, dissolved in DMSO), verbascoside-nanogold derivative (15 mg of derivative per kg body weight, dissolved in DMSO), and polypeptide-verbascoside-nanogold particle derivative (15 mg of derivative per kg body weight, dissolved in DMSO) at 9:30 am every day, respectively.

[3] abbreviates: high fat feed mice, 15 mg/kg i.p. daily for 12 weeks, wet weight.

For the substance “polypeptide-verbascoside: ester of adipose tissue-targeting polypeptide CKGGRAKDC (C-terminal acyl chloride) with verbascoside sodium phenolate, per Embodiment 1 (not fully specified (C-terminus); cysteine pairing not given here)”, the Body weight in assay [1] (Table 3, high fat feed mice, 12 weeks, after 12 h fasting) is reported as 35.46 ± 1.57 g. This substance also displayed a Body weight in assay [1] (Table 4, high fat feed mice, 12 weeks) of 35.26 ± 1.77 g. Moreover, the SF-FAT in assay [1] (abdominal subcutaneous fat, high fat feed mice, 12 weeks) turned out to be 0.79 ± 0.12 g. Further, the “Total weight of the fat pad” value in assay [1] (adipose tissues around kidney + around epididymis, high fat feed mice, 12 weeks) stood at 2.27 ± 0.14 g. Besides, in assay [1] (after treatment, compared with the model control group (#p<0.05)), the “wet weight of the visceral adipose tissues of mice” value is “significantly reduced”. Further, the “Total weight of visceral adipose tissues” value in assay [1] (high fat feed mice, 15 mg/kg i.p. daily for 12 weeks, Table 2) was 5.72 ± 0.17 g. In addition, in assay [1] (setting [3]), the “Weight of visceral adipose tissues: Around epididymis” value turned out to be 1.21 ± 0.12 g; the “Weight of visceral adipose tissues: Around kidney” value worked out at 0.61 ± 0.17 g; the “Weight of visceral adipose tissues: Around omentum and mesentery” value stood at 0.32 ± 0.05 g. In assay [1] (high fat feed mice, 12 weeks), this substance returned an SF-FAT/body weight of 2.27 ± 0.23 and a VF-FAT/SF-FAT of 2.63 ± 0.29. For the same substance, the Body fat index in assay [1] (total weight of the fat pad / total body weight, high fat feed mice, 12 weeks) came out at 6.13 ± 0.41 %. In assay [1] (visceral fat, Table 4, high fat feed mice, 12 weeks), the VF-FAT is reported as 5.78 ± 0.17 g. The “Weight 6 weeks after administration” value in assay [2] (high fat feed mice, 15 mg/kg intraperitoneal injection every day, 6 weeks, n=10) came to 30.6 ± 0.3 g. The “Weight 12 weeks after administration” value in assay [2] (high fat feed mice, 15 mg/kg intraperitoneal injection every day, 12 weeks, n=10) was 35.5 ± 1.6 g. The “Initial Weight” value in assay [2] (high fat feed obese mice, before administration (baseline), n=10) is given as 29.3 ± 0.5** g. Besides, the “weight gains of mice” value in assay [2] (treatment for 6 weeks, compared with the model control group (#p<0.05)) is “significantly inhibited”.
